{
  "source": "patent US9220705B2",
  "about": "“Method of treating colorectal cancer” (priority 2013, dated 2015)",
  "key": {"[1]": {"test_system": "LoVo colorectal adenocarcinoma xenografts", "assay": "In vivo anticancer activity, oxaliplatin-sensitive colorectal xenograft", "design": "species or system BALB/c nu/nu mice", "conditions": "LoVo xenograft; daily ip day 14 to day 30; 1 at 3 mg/kg, OXP at 2 mg/kg; tumor volume at day 30", "protocol": "(§1) LoVo and LoVo-OXP tumor xenografts were established in 6-week-old BALB/c nu/nu mice by injecting 1×10^7 tumor cells subcutaneously (100 μL in serum free medium) on the left dorsal flank. After 24 h from tumor implantation, mice were randomly divided into five groups (6 animals per group, 8 controls). Chemotherapy was delayed until the tumor became palpable (day 14). From day 14, 1 was dosed daily at 3 mg/kg ip whereas OXP was dosed daily at 2 mg/kg ip. Measurements of body weights and tumor volumes were recorded every 2 days until the experimental endpoint. The long axis (L) and the short axis (S) were measured with caliper, and the tumor volume (V) was calculated using the following equation: V=S×S×L/2. At day 30, animals were sacrificed, and the inhibition of tumor growth was determined by comparing the volume of the control group and the treatment group expressed as % referred to the control animals.\n(§2) All the values are the means±S.D. of not less than three measurements. Multiple comparisons were made by Tukey-Kramer test (**p<0.01; *p<0.05)."}, "LoVo-OXP cells": {"test_system": "LoVo-OXP cells", "assay": "Cellular platinum uptake by GF-AAS", "type": "cell-based, human", "conditions": "LoVo-OXP resistant cells, 5 μM, 6, 24, 48 h, FIG. 2 panel B, compared with LoVo", "protocol": "LoVo and LoVo-OXP cells (2×10^6) were seeded in 75 cm^2 flasks in growth medium (20 ml). After 24 h, the medium was replaced and the cells incubated for different times (6, 24 or 48 h) in the presence of the tested complexes. Cell monolayers were washed twice with cold PBS and harvested. Samples were subjected to three freezing/thawing cycles at −80° C., and then vigorously vortexed. Aliquots were removed for the determination of protein content by the BioRad protein assay (BioRad). The samples were treated with 1 mL of highly pure nitric acid (Pt: ≦0.01 μg×kg^−1, TraceSELECT® Ultra, Sigma Chemical Co.) and transferred into a microwave teflon vessel. Subsequently, samples were submitted to a standard procedure using a speed wave MWS-3 Berghof instrument (Eningen, Germany). After cooling, each mineralized sample was analyzed for platinum by using a Varian AA Duo graphite furnace atomic absorption spectrometer (Varian, Palo Alto, Calif.; USA) at the wavelength of […]. The calibration curve was obtained using known concentrations of standard solutions purchased from Sigma Chemical Co.\nIt is well-known that cellular uptake is an important factor influencing drug efficacy. […] The intracellular platinum was quantified by means of GF-AAS analysis and the results, expressed as μg metal mg^−1 of cellular proteins, are summarized in FIG. 2."}, "[2]": {"test_system": "LoVo MDR multidrug resistant colon carcinoma subline", "assay": "MTT cytotoxicity assay, cross-resistance profile", "type": "cell-based, human", "text": "(§3) Human breast (MCF-7) and colon (HCT-15, DDL1, SW480 and CaCo-2) carcinoma cell lines along with melanoma (A375) were obtained from the American Type Culture Collection (ATCC, Rockville, Md.). A431 are human cervical carcinoma cells kindly provided by Prof. F. Zunino (Molecular Pharmacology Unit, Experimental Oncology and Molecular Medicine, Istituto Nazionale dei Tumori, Milan, Italy). […] G. Marverti (Dept. of Biomedical Science, University of Modena, Italy). LoVo human colon-carcinoma cell line and its multidrug-resistant sublime (LoVo MDR) were kindly provided by Prof F. Maj one (Department of Biology of Padova University, Italy). […] Cell lines were maintained in the logarithmic phase at 37° C. in a 5% carbon dioxide atmosphere using the following culture media containing 10% fetal calf serum (Euroclone, Milan, Italy), antibiotics (50 units mL^−1 penicillin and 50 μg mL^−1 streptomycin), and 2 mM L-glutamine in: i) RPMI-1640 medium (Euroclone) for MCF-7, HCT-15, A431, DLD 1, 2008, and C13* cells; ii) F-12 HAM'S (Sigma Chemical Co.) for LoVo, LoVo MDR, and LoVo-OXP cells; iii) DMEM for A375 and SW 480 cells; and iv) MEM for CaCo-2 cells.\n(§4) The growth inhibitory effect towards tumor cell lines was evaluated by means of the MTT (3-(4,5-dimethylthiazol-2-yl)-2,5-diphenyltetrazolium bromide) assay (Alley, M. C., et al., Cancer Res. 1988, 48, 589-601).\n(§5) Briefly, depending upon the growth characteristics of the cell line, 3-8×10^3 cells well^−1, were seeded in 96-well microplates in growth medium (100 μL) and then incubated at 37° C. in a 5% carbon dioxide atmosphere. After 24 h, the medium was removed and replaced with a fresh one containing the compound to be studied, at the appropriate concentration, dissolved in 0.9% sodium chloride solution just before use. Triplicate cultures were established for each treatment. After 72 h, each well was treated with […] of a 5 mg mL^−1 MTT saline solution and, after 5 h of incubation, 100 μL of a sodium dodecylsulfate (SDS) solution in 0.01 M HCl were added. After an overnight incubation, the inhibition of cell growth induced by the tested complexes was determined by measuring the absorbance of each well at 570 nm using a BioRad 680 microplate reader. Mean absorbance for each drug dose was expressed as percentage of the control and plotted vs. drug concentration. Dose-response curves were fitted and IC50 values were calculated with four parameter logistic model (4PL).\n(§6) A LoVo cell line retaining a multidrug resistance phenotype was also considered (LoVo MDR). Cross-resistance profiles were evaluated by means of the resistance factor (RF), which is defined as the ratio between the IC50 value for the resistant cells and that arising from the sensitive cells (Table 2).\nIn Table 2 are also reported the results obtained in a multidrug resistant (MDR) colon carcinoma subline, LoVo MDR, in which the resistance to doxorubicin, a drug belonging to the MDR spectrum, is associated with an overexpression of multi-specific drug transporters, such as the 170 kDa P-glycoprotein (P-gp) (Wersinger, C., et al., Amino Acids 2000, 19, 667-685). It is well known that acquired MDR, whereby cells become refractory to multiple drugs, poses most important challenge to the success of anticancer chemotherapy."}, "[3]": {"test_system": "LoVo-OXP colorectal adenocarcinoma xenografts", "assay": "In vivo anticancer activity, oxaliplatin-resistant colorectal xenograft", "design": "species or system BALB/c nu/nu mice", "protocol": "as §1, §2"}, "[4]": {"test_system": "C13* cisplatin resistant ovarian cancer cells", "assay": "MTT cytotoxicity assay, cross-resistance profile", "type": "cell-based, human", "conditions": "for R.F. (resistance factor): IC50 C13* / IC50 2008, cross-resistance with cisplatin", "text": "as §3, §4, §5, §6"}, "[5]": {"test_system": "LoVo-OXP oxaliplatin resistant colon cancer cells", "assay": "MTT cytotoxicity assay, cross-resistance profile", "type": "cell-based, human", "conditions": "for R.F. (resistance factor): IC50 LoVo-OXP / IC50 LoVo, cross-resistance with oxaliplatin", "text": "as §3, §4, §5, §6"}, "[6]": {"test_system": "2008 ovarian cancer cells", "assay": "MTT cytotoxicity assay, cross-resistance profile", "type": "cell-based, human", "conditions": "72 h", "text": "as §3, §4, §5, §6"}},
  "note": "Entries after “also recorded” stand apart in the source; their conditions may differ.",
  "data": [
    {"smiles": "O=C1[O][Pt-2]2([NH2+]C3CCCC[C@H]3[NH2+]2)[O]C1=O", "note": "(stereo partly drawn) [oxaliplatin, [(1R,2R)-cyclohexane-1,2diamine](ethanedioato)platinum(II), reference compound]", "values": [
      {"measurement": "tumor growth inhibition", "setting": "[1]", "result": 54, "unit": "%"},
      {"measurement": "intracellular platinum accumulation", "setting": "LoVo-OXP cells", "result": "remarkably decreased; also recorded: decreases remarkably"},
      {"measurement": "R.F. (resistance factor)", "setting": "[2]; IC50 LoVo-MDR / IC50 LoVo", "result": 1.3},
      {"measurement": "IC50", "setting": "[2]; LoVo-MDR, 72 h, MTT", "result": "1.36 ± 0.81", "unit": "µM"},
      {"measurement": "antitumor activity, times lower than that exerted by 1", "setting": "[3]; LoVo-OXP models", "result": 2.4},
      {"measurement": "tumor growth inhibition", "setting": "[3]; LoVo-OXP xenograft, daily ip day 14 to day 30, 1 at 3 mg/kg, OXP at 2 mg/kg, tumor volume at day 30", "result": 24, "unit": "%"},
      {"measurement": "IC50", "setting": "[4]; C13*, 72 h, MTT", "result": "3.33 ± 1.84", "unit": "µM"},
      {"measurement": "R.F. (resistance factor)", "setting": "[4]", "result": 2.0},
      {"measurement": "R.F. (resistance factor)", "setting": "[4]; listed as OXP", "result": 2},
      {"measurement": "R.F. (resistance factor)", "setting": "[5]", "result": 17},
      {"measurement": "R.F. (resistance factor)", "setting": "[5]; listed as OXP", "result": 17},
      {"measurement": "IC50", "setting": "[5]; LoVo-OXP, 72 h, MTT", "result": "17.5 ± 1.79", "unit": "µM"},
      {"measurement": "IC50", "setting": "[6]", "result": "1.65 ± 1.01", "unit": "µM"}
    ]}
  ]
}
